Test results: patent publication US7244738B2, “Arylamine-substituted quinazolinone compounds useful as alpha 1A/B adrenergic receptor antagonists” (Roche Palo Alto LLC, priority 2003, dated 2007)

How the values were obtained:
[1] = target: T1, Alpha1A adrenoceptor (Homo sapiens, UniProt P35348); assay: [3H]prazosin binding (alpha1-adrenoceptor) assay, membranes of transfected CHO-K1 cells; conditions: transfected CHO-K1 cell membranes, read-out: pKi alpha 1A (converted)
T1 construct: expressed in transfected cells; host or cells: CHO-K1
T1 sequence (P35348 1-466): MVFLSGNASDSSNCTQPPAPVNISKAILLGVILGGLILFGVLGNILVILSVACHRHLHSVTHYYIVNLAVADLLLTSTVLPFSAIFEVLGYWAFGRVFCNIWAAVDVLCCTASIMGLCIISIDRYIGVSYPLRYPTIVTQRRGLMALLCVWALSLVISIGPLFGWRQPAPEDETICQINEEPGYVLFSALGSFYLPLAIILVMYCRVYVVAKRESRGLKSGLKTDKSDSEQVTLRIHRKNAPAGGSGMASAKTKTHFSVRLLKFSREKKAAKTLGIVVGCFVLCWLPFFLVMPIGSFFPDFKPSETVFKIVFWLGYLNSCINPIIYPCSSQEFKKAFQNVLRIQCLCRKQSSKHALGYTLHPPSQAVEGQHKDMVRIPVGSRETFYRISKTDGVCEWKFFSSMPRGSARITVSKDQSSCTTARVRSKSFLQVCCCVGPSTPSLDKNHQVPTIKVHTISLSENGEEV
Description: (§1) Example [^3H]prazosin Binding (Alpha1-Adrenoceptor) Assay
(§2) Alpha1A, alpha1B, and alpha1D adrenoceptor transfected CHO-K1 cells, prepared using the methods described by Chang et al., FEBS Lett. 1998, 422:279–283, were grown to confluence in T-162 tissue culture flasks in Ham's F-12 culture medium supplemented with 10% fetal bovine serum, geneticin (150 μg/mL) and streptomycin/penicillin (30 μg/mL/30 μg/mL) at 37° C. in 7% CO2. Cells were harvested by incubating with phosphate-buffered saline (PBS) containing 30 μM EDTA for 5–10 min at 37° C. Cells were pelleted by centrifuging at 500×g for 5 min, and the pelleted cells were homogenized (Polytron homogenizer) in 10 vols (w/v) of 50 mM Tris, 1 mM EDTA, (homogenisation buffer, pH 7.4 at 4° C.). The homogenate was centrifuged at 45,000×g for 20 min. The pellet was resuspended in the homogenizing buffer and rehomogenized. The resulting homogenate was centrifuged at 45,000×g for 20 min. The pellet was resuspended in 50 mM Tris buffer (pH 7.4 at 4° C.), aliquoted, frozen, and stored at −80° C. for further use.
(§3) The membranes were thawed at room temperature and diluted in assay buffer (50 mM Tris buffer at […]) at 37° C. and homogenized using the Polytron tissue disrupter. The membranes were incubated with the radioligand ([^3H]prazosin, NEN, 0.1–0.5 nM) and test compound at 37° C. for 30 min. The membranes were then filtered over polyethyleneimine-treated GF/B unifilter plates using a Packard Filtermate Harvester and washed with ice-cold 50 mM Tris-HCl, 1 mM EDTA buffer (3×3 sec. washes). Scintillation cocktail was added to the filter plates and bound radioligand determined by liquid scintillation spectrophotometry.
(§4) For each experiment, total binding (in the absence of any test or reference compounds) and non-specific binding (10 μM phentolamine) were determined. For each sample tested, the concentration producing 50% inhibition of binding (IC50) and Hill Slope (nH) was determined using iterative non-linear curve fitting techniques with Kaleidagraph (Synergy Software) or other appropriate software. If the radioligand KD was known, the inhibition dissociation constant (KI) of each ligand was determined according to the method of Cheng and Prusoff (Cheng, Y-C. and Prusoff, W. H., Biochem. Pharmacol., 1973, 22, 3099–3108).

[2] = target: T2, alpha1B adrenoceptor (Homo sapiens, UniProt P35368); assay: as above; conditions: transfected CHO-K1 cell membranes, read-out: pKi alpha 1B (converted)
T2 construct: expressed in transfected cells; host or cells: CHO-K1
T2 sequence (P35368 1-520): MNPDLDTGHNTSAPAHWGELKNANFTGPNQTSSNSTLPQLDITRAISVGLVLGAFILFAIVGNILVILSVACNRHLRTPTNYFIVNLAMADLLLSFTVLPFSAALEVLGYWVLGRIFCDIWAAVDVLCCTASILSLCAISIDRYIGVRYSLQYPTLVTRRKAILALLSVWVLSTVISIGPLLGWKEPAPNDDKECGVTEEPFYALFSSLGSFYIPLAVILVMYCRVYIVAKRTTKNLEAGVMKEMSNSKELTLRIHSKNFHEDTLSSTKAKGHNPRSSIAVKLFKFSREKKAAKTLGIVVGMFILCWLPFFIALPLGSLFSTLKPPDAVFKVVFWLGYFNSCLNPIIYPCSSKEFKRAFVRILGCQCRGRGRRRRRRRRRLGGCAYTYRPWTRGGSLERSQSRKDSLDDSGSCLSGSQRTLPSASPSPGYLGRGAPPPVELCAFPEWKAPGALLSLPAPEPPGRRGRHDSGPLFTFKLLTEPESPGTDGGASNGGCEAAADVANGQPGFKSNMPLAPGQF
Description: as §1, §2, §3, §4

[3] = target: T3, alpha1D adrenoceptor (Homo sapiens, UniProt P25100); assay: as above; conditions: transfected CHO-K1 cell membranes, read-out: pKi alpha 1D (converted)
T3 construct: expressed in transfected cells; host or cells: CHO-K1
T3 sequence (P25100 1-572): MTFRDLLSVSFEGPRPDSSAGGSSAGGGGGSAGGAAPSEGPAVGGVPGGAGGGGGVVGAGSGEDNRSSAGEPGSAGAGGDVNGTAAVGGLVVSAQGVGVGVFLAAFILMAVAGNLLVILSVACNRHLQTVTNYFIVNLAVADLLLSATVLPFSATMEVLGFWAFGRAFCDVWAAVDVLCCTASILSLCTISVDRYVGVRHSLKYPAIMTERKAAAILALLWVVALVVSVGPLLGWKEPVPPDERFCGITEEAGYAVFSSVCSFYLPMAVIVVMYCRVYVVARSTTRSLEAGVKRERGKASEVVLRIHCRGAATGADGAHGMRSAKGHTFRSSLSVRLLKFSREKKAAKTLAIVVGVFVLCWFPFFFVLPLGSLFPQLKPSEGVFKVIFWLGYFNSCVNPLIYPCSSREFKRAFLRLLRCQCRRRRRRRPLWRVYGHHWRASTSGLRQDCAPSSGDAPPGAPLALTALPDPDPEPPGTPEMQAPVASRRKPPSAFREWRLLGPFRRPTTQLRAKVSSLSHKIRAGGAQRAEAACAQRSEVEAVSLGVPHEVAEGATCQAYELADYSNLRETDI
Description: as §1, §2, §3, §4

Row | SMILES | melting point [°C] | also measured
1 | COc1cc2[nH]c(NCc3cccc(N=C(C)N(C)C)c3)nc(=O)c2c(C)c1OC | – | Ki [1]: 7.41 nM; Ki [2]: 0.891 nM; Ki [3]: 69.2 nM
2 | CCN(C)Cc1ccc(CN(C)c2nc(=O)c3c(OC)c(OC)c(OC)cc3[nH]2)cc1 [2-({4-[(ethyl-methyl-amino)-methyl]-benzyl}-methyl-amino)-5,6,7-trimethoxy-1H-quinazolin-4-one] | – | Ki [1]: 3.16 nM; Ki [2]: 3.09 nM; Ki [3]: 550 nM
3 | COc1cc2[nH]c(N(C)Cc3cccc(C(C)N(C)C)c3)nc(=O)c2c(OC)c1OC (centres unmarked) [2-{[3-(1-Dimethylamino-ethyl)-benzyl]-methyl-amino}-5,6,7-trimethoxy-1H-quinazolin-4-one] | – | Ki [1]: 1.55 nM; Ki [2]: 3.72 nM; Ki [3]: 141 nM
4 | COc1cc2[nH]c(N(C)Cc3cccc(NCCO)c3)nc(=O)c2c(OC)c1OC [Example G-16, 2-{[3-(2-Hydroxy-ethylamino)-benzyl]-methyl-amino}-5,6,7-trimethoxy-1H-quinazolin-4-one] | 60.5 to 61.4 | –
5 | COc1cc2[nH]c(N(C)Cc3cccc(NCCCO)c3)nc(=O)c2c(OC)c1OC [Example G-18, 2-{[3-(3-Hydroxy-propylamino)-benzyl]-methyl-amino}-5,6,7-trimethoxy-1H-quinazolin-4-one] | 47 to 48.5 | –
6 | COCCNc1cccc(CN(C)c2nc(=O)c3c(OC)c(OC)c(OC)cc3[nH]2)c1 [Example G-19, 5,6,7-Trimethoxy-2-{[3-(2-methoxy-ethylamino)-benzyl]-methyl-amino}-1H-quinazolin-4-one] | 178.9 to 179.9 | –
7 | COCCN(C)c1cccc(CN(C)c2nc(=O)c3c(OC)c(OC)c(OC)cc3[nH]2)c1 [Example G-20, 5,6,7-Trimethoxy-2-({3-[(2-methoxy-ethyl)-methyl-amino]-benzyl}-methyl-amino)-1H-quinazolin-4-one] | 179.3 to 181.2 | –
8 | COc1cc2[nH]c(N(C)Cc3cccc(NC(C)=N)c3)nc(=O)c2c(C)c1OC [Example G-26, N-(3-{[(6,7-Dimethoxy-5-methyl-4-oxo-1,4-dihydro-quinazolin-2-yl)-methyl-amino]-methyl}-phenyl)-acetamidine] | 155 to 158 | –
9 | COc1cc2[nH]c(N(C)Cc3cccc(N=CN(C)C)c3)nc(=O)c2c(C)c1OC [Example G-30, N′-(3-{[(6,7-Dimethoxy-5-methyl-4-oxo-1,4-dihydro-quinazolin-2-yl)-methyl-amino]-methyl}-phenyl)-N,N-dimethyl-formamidine] | 185 to 186 | –
10 | COc1cc2[nH]c(N(C)Cc3cccc(N=C(C(C)C)N(C)C)c3)nc(=O)c2c(OC)c1OC [Example G-32, N,N-Dimethyl-N′-(3-{[methyl-(5,6,7-trimethoxy-4-oxo-1,4-dihydro-quinazolin-2-yl)-amino]-methyl}-phenyl)-isobutyramidine] | 148 to 150 | –
11 | CCc1c(OC)c(OC)cc2[nH]c(N(C)Cc3cccc(N=C(C)N(C)C)c3)nc(=O)c12 [Example G-33, N′-(3-{[(5-Ethyl-6,7-dimethoxy-4-oxo-1,4-dihydro-quinazolin-2-yl)-methyl-amino]-methyl}-phenyl)-N,N-dimethyl-acetamidine] | 224.6 to 225.5 | –
12 | COCCC(=Nc1cccc(CN(C)c2nc(=O)c3c(OC)c(OC)c(OC)cc3[nH]2)c1)N(C)C [Example G-36, 3-Methoxy-N,N-dimethyl-N′-(3-{[methyl-(5,6,7-trimethoxy-4-oxo-1,4-dihydro-quinazolin-2-yl)-amino]-methyl}-phenyl)-propionamidine] | 145 | –
13 | COc1cc2[nH]c(N(C)Cc3cccc(N=C4NCCN4)c3)nc(=O)c2c(C)c1OC [Example G-38, 2-{[3-(Imidazolidin-2-ylideneamino)-benzyl]-methyl-amino}-6,7-dimethoxy-5-methyl-1H-quinazolin-4-one] | 141.3 to 144.7 | –
14 | COc1cc2[nH]c(N(C)Cc3cccc(N=C4CCCN4C)c3)nc(=O)c2c(OC)c1OC [Example G-39, 5,6,7-Trimethoxy-2-{methyl-[3-(1-methyl-pyrrolidin-2-ylideneamino)-benzyl]-amino}-1H-quinazolin-4-one] | 130 to 133 | –
15 | COc1cc2[nH]c(N(C)Cc3cccc(NC4=NCCC4)c3)nc(=O)c2c(C)c1OC [Example G-42, 2-{[3-(4,5-Dihydro-3H-pyrrol-2-ylamino)-benzyl]-methyl-amino}-6,7-dimethoxy-5-methyl-1H-quinazolin-4-one] | 175.4 to 177.2 | –
16 | COc1cc2[nH]c(N(C)Cc3cccc(NC4=NCCC4)c3)nc(=O)c2c(OC)c1OC [Example G-43, 2-{[3-(4,5-Dihydro-3H-pyrrol-2-ylamino)-benzyl]-methyl-amino}-5,6,7-trimethoxy-1H-quinazolin-4-one] | 207 to 209 | –
17 | COc1cc2nc(N(C)Cc3cccc(N4CCCC4=O)c3)[nH]c(=O)c2c(OC)c1OC [Example H-1, 5,6,7-Trimethoxy-2-{methyl-[3-(2-oxo-pyrrolidin-1-yl)-benzyl]-amino}-1H-quinazolin-4-one] | 165.5 to 166.5 | –
18 | COc1cc2nc(N(C)Cc3cccc(C4=NCCN4C)c3)[nH]c(=O)c2c(C)c1OC [Example H-2, 6,7-Dimethoxy-5-methyl-2-{methyl-[3-(1-methyl-4,5-dihydro-1H-imidazol-2-yl)-benzyl]-amino}-1H-quinazolin-4-one] | 145 to 148 | –
19 | COc1cc2nc(N(C)Cc3cccc(C4CCN(C)CC4)c3)[nH]c(=O)c2c(C)c1OC [Example H-3, 6,7-Dimethoxy-5-methyl-2-{methyl-[3-(1-methyl-piperidin-4-yl)-benzyl]-amino}-1H-quinazolin-4-one] | 155.7 to 158 | –
20 | COc1cc2[nH]c(N(C)Cc3cccc(N4CCN=C4C)c3)nc(=O)c2c(C)c1OC [Example H-6, 6,7-Dimethoxy-5-methyl-2-{methyl-[3-(2-methyl-4,5-dihydro-imidazol-1-yl)-benzyl]-amino}-1H-quinazolin-4-one] | 177 to 180 | –
